The source of these data is patent publication US20260077051A1, “COMPOUNDS FOR THE DEGRADATION OF EGFR KINASE” (BeOne Medicines I GmbH, priority 2023, published 2026).

For assay [1], the target named is T1, EGFR L858R (BaF3-L858R cells) (Homo sapiens, UniProt P00533, L858R).
T1 construct: host or cells: BaF3
The experiment in a line: EGFR degradation in BaF3-L858R cells (HTRF assay). Type of assay: cell-based. The following applies: 16 h treatment; for DC50: IC50(DC50) of EGFR degradation; for Dmax: maximum percentage of inhibition (degradation). The essentials: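 BaF3-L858R cells were exposed for 16 h at 37° C to 8 doses, 5-fold dilutions starting at 10 uM final, in 0.1% DMSO medium. Lysates were incubated overnight with HTRF antibodies and read at 665/620 nm. Degradation was taken relative to DMSO control, and DC50 and Dmax came from a four-parameter fit.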

Assay [2] concerns the target T2, EGFR-L858R/C797S (H1975-clone #8 cells) (Homo sapiens, UniProt P00533, C797S/L858R).
T2 construct: expressed in transfected cells; host or cells: H1975 (lentiviral transduction, endogenous EGFR knocked out, single clone #8)
Put plainly: EGFR degradation in H1975-clone#8 (L858R/C797S) cells (HTRF assay). In kind it is cell-based. As to conditions: 16 h treatment; for DC50: IC50(DC50) of EGFR degradation; for Dmax: maximum percentage of inhibition (degradation). The essentials:
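H1975 cells engineered to carry only homozygous exogenous EGFR L858R/C797S (clone #8) treated 16 h at 37 °C with compound, 8 doses from 10 uM in 5-fold steps, 0.1% DMSO. Remaining EGFR in lysates measured by HTRF; degradation percentage relative to DMSO control, DC50 and Dmax from 4-parameter fit.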

T1 sequence (P00533 25-1210 L858R): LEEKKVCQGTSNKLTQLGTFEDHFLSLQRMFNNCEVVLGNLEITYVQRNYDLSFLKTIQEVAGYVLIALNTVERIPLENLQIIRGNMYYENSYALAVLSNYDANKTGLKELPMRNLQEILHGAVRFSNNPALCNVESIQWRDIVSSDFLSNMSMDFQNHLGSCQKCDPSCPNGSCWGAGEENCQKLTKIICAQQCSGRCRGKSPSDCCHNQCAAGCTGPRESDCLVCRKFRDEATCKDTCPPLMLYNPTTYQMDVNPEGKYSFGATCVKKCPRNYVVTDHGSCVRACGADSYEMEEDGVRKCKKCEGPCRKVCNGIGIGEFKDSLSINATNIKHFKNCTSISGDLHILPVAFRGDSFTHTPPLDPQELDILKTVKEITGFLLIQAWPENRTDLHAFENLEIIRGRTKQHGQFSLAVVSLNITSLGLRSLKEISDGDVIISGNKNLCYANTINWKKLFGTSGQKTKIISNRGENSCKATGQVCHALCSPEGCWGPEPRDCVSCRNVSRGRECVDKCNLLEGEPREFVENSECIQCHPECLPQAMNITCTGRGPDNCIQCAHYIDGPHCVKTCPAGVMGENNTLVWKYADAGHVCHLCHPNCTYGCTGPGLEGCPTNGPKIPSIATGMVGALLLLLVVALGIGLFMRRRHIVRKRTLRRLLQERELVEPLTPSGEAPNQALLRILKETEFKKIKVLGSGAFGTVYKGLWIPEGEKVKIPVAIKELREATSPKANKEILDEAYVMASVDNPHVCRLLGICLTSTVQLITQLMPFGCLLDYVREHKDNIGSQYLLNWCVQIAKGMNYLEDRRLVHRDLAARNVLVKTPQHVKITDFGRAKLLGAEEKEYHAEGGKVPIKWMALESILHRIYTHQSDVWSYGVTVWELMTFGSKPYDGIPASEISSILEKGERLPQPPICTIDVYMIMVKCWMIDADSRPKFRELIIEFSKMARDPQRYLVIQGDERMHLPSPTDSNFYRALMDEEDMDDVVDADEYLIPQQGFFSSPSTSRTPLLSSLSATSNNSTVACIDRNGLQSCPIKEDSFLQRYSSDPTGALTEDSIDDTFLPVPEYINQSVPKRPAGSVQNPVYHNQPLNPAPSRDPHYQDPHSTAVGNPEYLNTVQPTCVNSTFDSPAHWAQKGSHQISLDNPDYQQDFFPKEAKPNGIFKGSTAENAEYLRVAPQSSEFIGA
T2 sequence (P00533 25-1210 C797S/L858R): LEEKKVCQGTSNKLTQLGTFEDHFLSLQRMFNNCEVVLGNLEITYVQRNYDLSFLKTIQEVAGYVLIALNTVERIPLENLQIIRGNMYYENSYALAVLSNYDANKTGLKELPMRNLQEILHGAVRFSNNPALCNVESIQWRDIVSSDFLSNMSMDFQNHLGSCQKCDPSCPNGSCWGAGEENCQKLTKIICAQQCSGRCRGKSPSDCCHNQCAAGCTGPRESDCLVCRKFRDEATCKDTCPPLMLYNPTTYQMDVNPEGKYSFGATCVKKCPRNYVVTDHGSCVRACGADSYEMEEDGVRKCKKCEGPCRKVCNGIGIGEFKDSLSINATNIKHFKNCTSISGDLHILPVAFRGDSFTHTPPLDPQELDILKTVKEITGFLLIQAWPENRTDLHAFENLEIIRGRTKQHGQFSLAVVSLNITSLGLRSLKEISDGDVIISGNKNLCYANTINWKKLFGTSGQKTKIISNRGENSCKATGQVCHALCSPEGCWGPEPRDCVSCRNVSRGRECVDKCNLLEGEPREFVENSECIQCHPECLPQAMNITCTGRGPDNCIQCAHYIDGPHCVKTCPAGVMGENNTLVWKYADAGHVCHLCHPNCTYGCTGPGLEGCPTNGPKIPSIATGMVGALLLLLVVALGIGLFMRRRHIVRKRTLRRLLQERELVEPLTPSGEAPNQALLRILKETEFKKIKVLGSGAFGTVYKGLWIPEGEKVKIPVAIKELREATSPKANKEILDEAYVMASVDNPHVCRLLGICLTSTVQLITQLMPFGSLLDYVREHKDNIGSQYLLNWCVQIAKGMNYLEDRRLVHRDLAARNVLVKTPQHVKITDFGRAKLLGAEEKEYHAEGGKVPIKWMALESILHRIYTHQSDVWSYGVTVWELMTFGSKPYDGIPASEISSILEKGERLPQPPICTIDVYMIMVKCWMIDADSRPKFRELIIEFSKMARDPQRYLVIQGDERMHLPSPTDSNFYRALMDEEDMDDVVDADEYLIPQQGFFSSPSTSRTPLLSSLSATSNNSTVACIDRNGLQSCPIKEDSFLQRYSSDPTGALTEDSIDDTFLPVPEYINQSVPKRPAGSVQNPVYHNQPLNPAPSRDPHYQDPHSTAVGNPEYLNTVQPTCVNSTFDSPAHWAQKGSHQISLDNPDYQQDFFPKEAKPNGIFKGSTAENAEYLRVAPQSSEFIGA

In assay [1], `Cc1cc2cc(n1)-c1cnn(C)c1OCC[C@]1(C)C[C@H]1CN1/C(=N/C2=O)Nc2ccc(N3CCN(C4CCN(c5cc(F)c(C6CCC(=O)NC6=O)nc5C)CC4)CC3)cc21` (some centres unmarked) [Example 54, 3-(3-fluoro-6-methyl-5-(4-(4-((7^1R,7^2S,E)-1^1,2^6,7^2-trimethyl-3-oxo-5^2,5^3-dihydro-1^1H,5^1H-10-oxa-4-aza-5 (2,1)-benzo[d]imidazola-2 (2,4)-pyridina-1 (4,5)-pyrazola-7 (1,2)-cyclopropanacyclodecaphane-5^6-yl)piperazin-1-yl)piperidin-1-yl)pyridin-2-yl)piperidine-2,6-dione] returned a half-maximal degradation concentration (DC50) of 3.35 nM and a maximal degradation (Dmax) of 91.9%. In assay [2], this molecule displayed a DC50 of 2.11 nM and a Dmax of 77.7%.

Take `Cc1cc2cc(n1)-c1cnn(C)c1OCC[C@]1(C)C[C@H]1CN1/C(=N/C2=O)Nc2ccc(N3CCN([C@@H]4CCN(c5cccc6c5C(C)(C)C(=O)N6C5CCC(=O)NC5=O)C[C@@H]4F)CC3)cc21` (stereo partly drawn) [Example 57, 3-(4-((3S,4R)-3-fluoro-4-(4-((7^1R,7^2S,E)-1^1,2^6,7^2-trimethyl-3-oxo-5^2,5^3-dihydro-1^1H,5^1H-10-oxa-4-aza-5 (2,1)-benzo[d]imidazola-2 (2,4)-pyridina-1 (4,5)-pyrazola-7 (1,2)-cyclopropanacyclodecaphane-5^6-yl)piperazin-1-yl)piperidin-1-yl)-3,3-dimethyl-2-oxoindolin-1-yl)piperidine-2,6-dione]: in assay [1], the DC50 stood at 3.2 nM and the greatest degradation seen (Dmax) was 91.3%. In assay [2], this molecule showed a DC50 of 4.21 nM and a Dmax of 61.7%.

`Cc1cc2cc(n1)-c1cnn(C)c1OCC[C@]1(C)C[C@H]1CN1/C(=N/C2=O)Nc2ccc(N3CCN([C@@H]4CCN(c5cnc(C6CCC(=O)NC6=O)cc5C)C[C@@H]4F)CC3)cc21` (stereo partly drawn) [Example 59, 3-(5-((3S,4R)-3-fluoro-4-(4-((7^1R,7^2S,E)-1^1,2^6,7^2-trimethyl-3-oxo-5^2,5^3-dihydro-1^1H,5^1H-10-oxa-4-aza-5 (2,1)-benzo[d]imidazola-2 (2,4)-pyridina-1 (4,5)-pyrazola-7 (1,2)-cyclopropanacyclodecaphane-5^6-yl)piperazin-1-yl)piperidin-1-yl)-4-methylpyridin-2-yl)piperidine-2,6-dione]: the DC50 amounted to 3.54 nM in assay [1] and 0.635 nM in assay [2]. Moreover, the Dmax came to 95.5% in assay [1] and 72.7% in assay [2].

In assay [1], `Cc1cc2cc(n1)-c1cnn(C)c1OCC[C@]1(C)C[C@H]1CN1/C(=N/C2=O)Nc2ccc(N3CCN([C@H]4CCN(c5cc(F)c(C6CCC(=O)NC6=O)nc5C)C[C@H]4F)CC3)cc21` (stereo partly drawn) [Example 61, 3-(3-fluoro-5-((3R,4S)-3-fluoro-4-(4-((7^1R,7^2S,E)-1^1,2^6,7^2-trimethyl-3-oxo-5^2,5^3-dihydro-1^1H,5^1H-10-oxa-4-aza-5 (2,1)-benzo[d]imidazola-2 (2,4)-pyridina-1 (4,5)-pyrazola-7 (1,2)-cyclopropanacyclodecaphane-56-yl)piperazin-1-yl)piperidin-1-yl)-6-methylpyridin-2-yl)piperidine-2,6-dione] displayed a 50% degradation concentration (DC50) of 0.99 nM and a Dmax of 91.8%. For the same molecule, in assay [2], it took 1.29 nM to reach half-maximal degradation (DC50) and the Dmax was 80.8%.

In assay [1], `Cc1cc2cc(n1)-c1cnn(C)c1OCC[C@]1(C)C[C@H]1CN1/C(=N/C2=O)Nc2ccc(N3CCN([C@H]4CCN(c5ccc(C6CCC(=O)NC6=O)nc5C)C[C@H]4F)CC3)cc21` (stereo partly drawn) [Example 62, 3-(5-((3R,4S)-3-fluoro-4-(4-((7^1R,7^2S,E)-1^1,2^6,7^2-trimethyl-3-oxo-5^2,5^3-dihydro-1^1H,5^1H-10-oxa-4-aza-5 (2,1)-benzo[d]imidazola-2 (2,4)-pyridina-1 (4,5)-pyrazola-7 (1,2)-cyclopropanacyclodecaphane-5^6-yl)piperazin-1-yl)piperidin-1-yl)-6-methylpyridin-2-yl)piperidine-2,6-dione] displayed a DC50 of 0.69 nM and a Dmax of 93.8%. In assay [2], this molecule came in with a DC50 of 0.612 nM and a maximal degradation (Dmax) of 76.8%.
